In brackets after ≈: the same amount, converted by molar mass.
Legend:
Format in all cases: functional, organism-based
Alternaria solani [1] = test: Antifungal activity against Alternaria solani incubated as 10% EC formulation
Fulvia fulva [2] = test: Antifungal activity against Passalora fulva incubated as 10% EC formulation
Botrytis cinerea [3] = test: Antifungal activity against Botryotinia fuckeliana incubated as 10% EC formulation
Alternaria solani [4] = test: Antifungal activity against Alternaria solani incubated as 50% WP formulation
Fulvia fulva [5] = test: Antifungal activity against Passalora fulva incubated as 50% WP formulation
Botrytis cinerea [6] = test: Antifungal activity against Botryotinia fuckeliana incubated as 50% WP formulation

Question: What does the source list for `C=CCc1ccccc1O` [2-ALLYLPHENOL]?
Answer: EC50 (Alternaria solani [1]): 31.3 µg/mL (≈ 233 µM); EC50 (Fulvia fulva [2]): 52.2 µg/mL (≈ 389 µM); EC50 (Botrytis cinerea [3]): 21.7 µg/mL (≈ 162 µM)

Question: How did the EC50 (Alternaria solani [4]) turn out when `CC(C)NC(=O)N1CC(=O)N(c2cc(Cl)cc(Cl)c2)C1=O` [IPRODIONE] was run?
Answer: 56 µg/mL (≈ 169 µM)

Question: And the EC50 (Fulvia fulva [5])?
Answer: 48.9 µg/mL (≈ 148 µM)

Question: And the EC50 (Botrytis cinerea [6])?
Answer: 58.6 µg/mL (≈ 177 µM)
